Test results published in patent US4977146A, “2,5-diaryl tetrahydrofurans and analogs thereof as PAF antagonists” (Merck & Co., Inc., priority 1990, dated 1990).

Molecular target: T1, PAF specific receptor binding site on human platelet membranes (Homo sapiens, UniProt P25105)
T1 construct: 100 μg of the platelet plasma membrane suspension; from tissue; host or cells: human platelets (plasma membranes)
Test: inhibition of the binding of [3H] N-methylcarbamoyl-PAF to human platelet membranes
Conditions: trans configuration, read-out: % inhibitor* (% inhibition of the binding of [3H] N-methylcarbamoyl-PAF to human platelet membranes)
Method: The ability of a compound of formula (I) to inhibit the PAF binding to its specific receptor binding site on rabbit or human platelet or PMN plasma membranes was measured by a recently developed assay.
The inhibition of ^3 [H] PAF or ^3 [H]N-methylcarbamoyl-PAF binding to the human or rabbit platelet or PMN plasma membrane by a PAF antagonist of formula (I) was determined by a method employing isotopic labeling and filtration techniques. Generally, a series of Tris-buffered solutions of the selected antagonist at predetermined concentrations were prepared. […] Two control samples, one of which (C1) contains all the ingredients described above except the antagonist and the other (C2) contains C1 plus a 1000-fold excess of unlabeled PAF, were also prepared and incubated simultaneously with the test samples. After the incubation was completed, the contents of each test tube were filtered in vacuo through a Whatman GF/C fiberglass filter and the residue washed rapidly several times with a total of 20 ml cold (0°-5° C.) Tris-buffer solution. Each washed residue was then suspended in 10 ml scintillation solution (Aquasol 2, New England Nuclear, Connecticut) and the radioactivity was counted in a Packard Tri-Carb 460CD Liguid Scintillation System.

T1 sequence (P25105 whole entry): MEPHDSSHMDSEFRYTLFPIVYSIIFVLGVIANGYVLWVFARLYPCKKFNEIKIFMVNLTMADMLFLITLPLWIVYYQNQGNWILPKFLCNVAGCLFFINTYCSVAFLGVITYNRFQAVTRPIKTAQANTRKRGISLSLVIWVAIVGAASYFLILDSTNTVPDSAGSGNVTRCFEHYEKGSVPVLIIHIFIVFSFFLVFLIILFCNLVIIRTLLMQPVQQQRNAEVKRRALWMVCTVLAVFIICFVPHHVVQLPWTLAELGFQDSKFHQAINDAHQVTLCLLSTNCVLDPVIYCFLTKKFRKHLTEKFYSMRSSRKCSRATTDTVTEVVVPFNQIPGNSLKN

inhibition [%]	SMILES
17	CCCOc1c(OCCCN(C)C)cc([C@@H]2CC[C@@H](c3cc(OC)c(OC)c(OC)c3)O2)cc1S(=O)(=O)CC(C)=O (relative stereo) [2-[3-(2-Oxopropylsulfonyl)4-n-propoxy-5-{3-(N,N-dimethylamino)-n-propoxy}phenyl]-5-(3,4,5-trimethoxyphenyl)tetrahydrofuran]
33	CCCOc1c(OCC(C)=O)cc([C@H]2CC[C@H](c3cc(OC)c(OC)c(OC)c3)O2)cc1S(=O)(=O)CCO (relative stereo) [SO2 CH2 CH2OH / CH2 CH2 CH3 / CH2 COCH3, trans-2-[3-(2-Hydroxyethylsulfonyl)-4-n-propoxy-5-(2-oxo-propoxy)phenyl]-5-(3,4,5-trimethoxy-phenyl)tetrahydrofuran]
65	CCCOc1c(OCC(C)=O)cc([C@H]2CC[C@H](c3cc(OC)c(OC)c(OC)c3)O2)cc1S(=O)(=O)CC(C)=O (relative stereo) [SO2 CH2 COCH3 / CH2 CH2 CH3 / CH2 COCH3, trans-2-[3-(2-Oxopropyl-sulfonyl)-4-n-propoxy-5-(2-oxopropoxy)phenyl]-5-(3,4,5-trimethoxyphenyl)tetrahydrofuran]
27	CCCOc1cc([C@H]2CC[C@H](c3cc(OC)c(OC)c(OC)c3)O2)cc(S(=O)(=O)CCN)c1OCCC (relative stereo) [trans-2-[3-(2-Aminoethylsulfonyl)-4,5-dipropoxyphenyl]-5-(3,4,5-trimethoxyphenyl)tetrahydrofuran]
18	CCCOc1c(OCCCO)cc([C@H]2CC[C@H](c3cc(OC)c(OC)c(OC)c3)O2)cc1S(=O)(=O)CC(C)N (relative stereo) [trans-2-[3-(2-Aminopropylsulfonyl)-4-n-propoxy-5-(3-hydroxypropoxy)phenyl]5-(3,4,5-trimethoxyphenyl)tetrahydrofuran]
31	CCCOc1c(OCC(C)=O)cc([C@@H]2CC[C@@H](c3cc(OC)c(OC)c(OC)c3)O2)cc1S(=O)(=O)CCN(C)C (relative stereo) [trans-2-[3-(2-N,N-Dimethylaminoethyl-sulfonyl)-4-n-propoxy-5-(2-oxo-propoxyphenyl]-5-(3,4,5-trimethoxyphenyl)tetrahydrofuran]
58	CCCOc1cc([C@@H]2CC[C@@H](c3cc(OC)c(OC)c(OC)c3)O2)cc(S(=O)(=O)CCN(C)C)c1OCCC (relative stereo) [trans-2-[3-(2-N,N-Dimethylaminoethylsulfonyl)-4,5-di-n-propoxyphenyl]-5-(3,4,5-trimethoxyphenyl)tetrayhydrofuran]
14	CCCOc1c(OCC(C)O)cc([C@@H]2CC[C@@H](c3cc(OC)c(OC)c(OC)c3)O2)cc1S(=O)(=O)CCN(C)C (relative stereo) [trans-2-[3-(2-N,N-Dimethylaminoethylsulfonyl)-4-n-propoxy-5-(2-hydroxypropoxy)phenyl]-5-(3,4,5-trimethoxyphenyl)tetrahydrofuran]
46	CCCOc1c(OCCCO)cc([C@@H]2CC[C@@H](c3cc(OC)c(OC)c(OC)c3)O2)cc1S(=O)(=O)CCN(C)C (relative stereo) [trans-2-[3-(2-N,N-Dimethylaminoethylsulfonyl)-4-n-propoxy-5-(3-hydroxypropoxy)phenyl]-5-(3,4,5-trimethoxyphenyl)tetrahydrofuran]
23	CCCOc1c(OCCCO)cc([C@@H]2CC[C@@H](c3cc(OC)c(OC)c(OC)c3)O2)cc1S(=O)(=O)CC(C)N(C)C (relative stereo) [trans-2-[3-(2-N,N-dimethylaminopropyl-sulfonyl)-4-n-propoxy-5-(3-hydroxypropoxy)phenyl]5-(3,4,5-trimethoxyphenyl)tetrahydrofuran]
42	CCCOc1cc([C@@H]2CC[C@@H](c3cc(OC)c(OC)c(OC)c3)O2)cc(S(=O)(=O)CCNCC)c1OCCC (relative stereo) [trans-2-[3-(2-N-Ethylaminoethylsulfonyl)-4,5-dipropoxyphenyl]-5-(3,4,5-trimethoxyphenyl)tetrahydrofuran]
36	CCCOc1c(OCCCO)cc([C@@H]2CC[C@@H](c3cc(OC)c(OC)c(OC)c3)O2)cc1S(=O)(=O)CC(C)NCC (relative stereo) [trans-2-[3-(2-N-Ethylaminopropylsulfonyl)-4-propoxy-5-(3-hydroxypropoxy)phenyl]-5-(3,4,5-trimethoxyphenyl)tetrahydrofuran]
58	CCCOc1cc([C@@H]2CC[C@@H](c3cc(OC)c(OC)c(OC)c3)O2)cc(S(=O)(=O)CCNC)c1OCCC (relative stereo) [trans-2-[3-(2-N-Methylaminoethylsulfonyl)-4,5-di-n-propoxyphenyl]-5-(3,4,5-trimethoxyphenyl) tetrahydrofuran]
38	CCCOc1c(OCCCO)cc([C@@H]2CC[C@@H](c3cc(OC)c(OC)c(OC)c3)O2)cc1S(=O)(=O)CC(C)NC (relative stereo) [trans-2-[3-(2-N-Methylaminopropylsulfonyl)-4-n-propoxy-5-(3-hydroxypropoxy)phenyl]-5-(3,4,5-trimethoxyphenyl)tetrahydrofuran]
33	CCCNCCS(=O)(=O)c1cc([C@@H]2CC[C@@H](c3cc(OC)c(OC)c(OC)c3)O2)cc(OCCC)c1OCCC (relative stereo) [trans-2-[3-(2-N-Propylaminoethylsulfonyl)-4,5-dipropoxyphenyl]-5-(3,4,5-trimethoxyphenyl) tetrahydrofuran]
52	CCCOc1c(OCC(C)=O)cc([C@H]2CC[C@H](c3cc(OC)c(OC)c(OC)c3)O2)cc1S(=O)(=O)CC(C)O (relative stereo) [trans-2-[3-(2-hydroxypropylsulfonyl)-4-n-propoxy-5-(2-oxopropoxy)phenyl]-5-(3,4,5-trimethoxy-phenyl)tetrahydrofuran]
26	CCCOc1c(OCCCO)cc([C@H]2CC[C@H](c3cc(OC)c(OC)c(OC)c3)O2)cc1S(=O)(=O)CC(C)O (relative stereo) [trans-2-[3-(2-hydroxypropylsulfonyl)-4-n-propoxy-5-(3-hydroxypropoxy)phenyl]-5-(3,4,5-trimethoxyphenyl)tetrahydrofuran]
